Test results: patent US9399638B2, “Substituted pyridine compounds as CRAC modulators” (LUPIN LIMITED, priority 2012, dated 2016)
pIC50: −log10 of the molar value.

Tested on: IL-2 secretion by Jurkat T cells
Assay: Inhibition of IL-2 secretion
Assay type: cell-based
Conditions: Homo sapiens; Jurkat T cells stimulated with PHA, 20 to 24 hours, IL-2 by ELISA
Procedure: The CRAC channel modulatory activity of the compounds were thus evaluated by measuring the secretion of IL-2 by antigen stimulated T-cells in vitro. Alternatively, such activity can also be evaluated by assay methods known to one skilled in the art.
Inhibition of IL-2 secretion: Jurkat T cells were seeded at a density of 0.5 to 1 million cells per well in RPMI medium. Test compounds from this invention were added to the cells at different concentrations. This was followed by the addition of PHA, a T cell mitogen after 10 minutes. The cells were then incubated for 20 to 24 hours in a CO2 incubator at 37° C. After incubation with the compounds, cells were centrifuged, the supernatant was collected and processed for ELISA to quantitate the amount of IL-2 secreted. A commercial ELISA kit (R&D Systems, Inc. Minneapolis, Minn., USA) was used to estimate the IL-2 concentrations. Amount of IL-2 secreted by cells stimulated with PHA was considered as a 100% maximal signal and the decrease in amount of IL-2 secreted by cells treated with the test compounds was expressed as percent inhibition of the maximal signal. The dose response data was analyzed using 4-parametric sigmoidal dose response (variable slope) curve—fit.

Cc1cnccc1NC(=O)c1ccc(-c2cc(-c3nn(C)c(=O)o3)cnc2C2CC2)s1 [Example 43, 5-(2-Cyclopropyl-5-(4-methyl-5-oxo-4,5-dihydro-1,3,4-oxadiazol-2-yl)pyridin-3-yl)-N-(3-methylpyridin-4-yl)thiophene-2-carboxamide] and Cn1nc(-c2cnc(C3CC3)c(-c3ccc(C(=O)Nc4c(F)cccc4F)s3)c2)oc1=O [Example 59, 5-(2-Cyclopropyl-5-(4-methyl-5-oxo-4,5-dihydro-1,3,4-oxadiazol-2-yl)pyridin-3-yl)-N-(2,6-difluorophenyl)thiophene-2-carboxamide] cannot be ordered by pIC50: greater than 7.00 for the first, greater than 7.00 for the second.

CCc1ncc(-c2nn(C)c(=O)o2)cc1-c1ccc(C(=O)Nc2c(F)cccc2F)o1 [Example 44, N-(2,6-Difluorophenyl)-5-(2-ethyl-5-(4-methyl-5-oxo-4,5-dihydro-1,3,4-oxadiazol-2-yl)pyridin-3-yl)furan-2-carboxamide] and Cn1nc(-c2cnc(C3CC3)c(-c3ccc(C(=O)Nc4c(F)cccc4F)o3)c2)oc1=O [Example 45, 5-(2-Cyclopropyl-5-(4-methyl-5-oxo-4,5-dihydro-1,3,4-oxadiazol-2-yl)pyridin-3-yl)-N-(2,6-difluorophenyl)furan-2-carboxamide] cannot be ordered by pIC50: less than 6.00 for the first, less than 6.00 for the second.

CCc1ncc(-c2nn(C)c(=O)o2)cc1-c1ccc(NC(=O)c2c(F)cncc2F)cc1 [Example 46, N-(4-(2-Ethyl-5-(4-methyl-5-oxo-4,5-dihydro-1,3,4-oxadiazol-2-yl)pyridin-3-yl)phenyl)-3,5-difluoroisonicotinamide] and CCc1ncc(-c2nn(C)c(=O)o2)cc1-c1ccc(NC(=O)c2c(C)cccc2F)cc1 [Example 47, N-(4-(2-Ethyl-5-(4-methyl-5-oxo-4,5-dihydro-1,3,4-oxadiazol-2-yl)pyridin-3-yl)phenyl)-2-fluoro-6-methylbenzamide] fall in the same range of pIC50: 6.00 to 7.00 for the first, 6.00 to 7.00 for the second.

First: CCc1ncc(-c2nn(C)c(=O)o2)cc1-c1ccc(NC(=O)c2c(F)cccc2Cl)cc1 [Example 48, 2-Chloro-N-(4-(2-ethyl-5-(4-methyl-5-oxo-4,5-dihydro-1,3,4-oxadiazol-2-yl)pyridin-3-yl)phenyl)-6-fluorobenzamide]
Second: CCc1ncc(-c2ccc(NC(=O)c3c(F)cccc3F)cc2)cc1-c1nn(C)c(=O)o1 [Example 68, N-(4-(6-Ethyl-5-(4-methyl-5-oxo-4,5-dihydro-1,3,4-oxadiazol-2-yl)pyridin-3-yl)phenyl)-2,6-difluorobenzamide]
The pIC50 of the first is higher: 6.00 to 7.00 for the first, less than 6.00 for the second.

First: CCc1ncc(-c2nn(C)c(=O)o2)cc1-c1ccc(NC(=O)c2snnc2C)cc1 [Example 49, N-(4-(2-Ethyl-5-(4-methyl-5-oxo-4,5-dihydro-1,3,4-oxadiazol-2-yl)pyridin-3-yl)phenyl)-4-methyl-1,2,3-thiadiazole-5-carboxamide]
Second: CCc1ncc(-c2nn(C)c(=O)o2)cc1-c1ccc(NC(=O)c2c(C)noc2C)cc1 [Example 50, N-(4-(2-Ethyl-5-(4-methyl-5-oxo-4,5-dihydro-1,3,4-oxadiazol-2-yl)pyridin-3-yl)phenyl)-3,5-dimethylisoxazole-4-carboxamide]
The pIC50 of the first is higher: 6.00 to 7.00 for the first, less than 6.00 for the second.

CCc1ncc(-c2nn(C)c(=O)o2)cc1-c1ccc(NC(=O)c2ccncc2C)cc1 [Example 51, N-(4-(2-Ethyl-5-(4-methyl-5-oxo-4,5-dihydro-1,3,4-oxadiazol-2-yl)pyridin-3-yl)phenyl)-3-methylisonicotinamide] and CCc1cc(-c2nn(C)c(=O)o2)cnc1-c1ccc(NC(=O)c2c(F)cccc2F)cc1 [Example 65, N-(4-(3-Ethyl-5-(4-methyl-5-oxo-4,5-dihydro-1,3,4-oxadiazol-2-yl)pyridin-2-yl)phenyl)-2,6-difluorobenzamide] cannot be ordered by pIC50: less than 6.00 for the first, less than 6.00 for the second.

Compared with CCc1ncc(-c2nn(C)c(=O)o2)cc1-c1cnc(NC(=O)c2c(F)cccc2F)cn1 [Example 53, 2,6-Difluoro-N-(5-(2-ethyl-5-(4-methyl-5-oxo-4,5-dihydro-1,3,4-oxadiazol-2-yl)pyridin-3-yl)pyrazin-2-yl)benzamide], CCc1ncc(-c2nn(C)c(=O)o2)cc1-c1cnc(NC(=O)c2c(F)cccc2Cl)cn1 [Example 54, 2-Chloro-N-(5-(2-ethyl-5-(4-methyl-5-oxo-4,5-dihydro-1,3,4-oxadiazol-2-yl)pyridin-3-yl)pyrazin-2-yl)-6-fluorobenzamide] is higher in pIC50: 6.00 to 7.00 for the first, greater than 7.00 for the second. The second is the more potent here.

Compared with Cc1ncc(-c2nn(C)c(=O)o2)cc1-c1cnc(NC(=O)c2c(F)cccc2F)cn1 [Example 55, 2,6-Difluoro-N-(5-(2-methyl-5-(4-methyl-5-oxo-4,5-dihydro-1,3,4-oxadiazol-2-yl)pyridin-3-yl)pyrazin-2-yl)benzamide], CNc1ncc(-c2nn(C)c(=O)o2)cc1-c1cnc(NC(=O)c2c(F)cccc2F)cn1 [Example 56, 2,6-Difluoro-N-(5-(5-(4-methyl-5-oxo-4,5-dihydro-1,3,4-oxadiazol-2-yl)-2-(methylamino)pyridin-3-yl)pyrazin-2-yl)benzamide] is lower in pIC50: 6.00 to 7.00 for the first, less than 6.00 for the second.

First: CCc1ncc(-c2nn(C)c(=O)o2)cc1-c1ccc(C(=O)Nc2c(F)cccc2F)s1 [Example 57, N-(2,6-Difluorophenyl)-5-(2-ethyl-5-(4-methyl-5-oxo-4,5-dihydro-1,3,4-oxadiazol-2-yl)pyridin-3-yl)thiophene-2-carboxamide]
Second: Cc1ncc(-c2nn(C)c(=O)o2)cc1-c1ccc(C(=O)Nc2c(F)cccc2F)s1 [Example 58, N-(2,6-Difluorophenyl)-5-(2-methyl-5-(4-methyl-5-oxo-4,5-dihydro-1,3,4-oxadiazol-2-yl)pyridin-3-yl)thiophene-2-carboxamide]
The pIC50 of the first is higher: greater than 7.00 for the first, 6.00 to 7.00 for the second. The first is the more potent here.

Cn1nc(-c2cnc(C(F)(F)F)c(-c3ccc(C(=O)Nc4c(F)cccc4F)s3)c2)oc1=O [Example 60, N-(2,6-Difluorophenyl)-5-(5-(4-methyl-5-oxo-4,5-dihydro-1,3,4-oxadiazol-2-yl)-2-(trifluoromethyl)pyridin-3-yl)thiophene-2-carboxamide] and CNc1ncc(-c2nn(C)c(=O)o2)cc1-c1ccc(C(=O)Nc2c(F)cccc2F)s1 [Example 61, N-(2,6-Difluorophenyl)-5-(5-(4-methyl-5-oxo-4,5-dihydro-1,3,4-oxadiazol-2-yl)-2-(methylamino)pyridin-3-yl)thiophene-2-carboxamide] cannot be ordered by pIC50: greater than 7.00 for the first, greater than 7.00 for the second.

Compared with Cc1ncc(-c2nn(C)c(=O)o2)cc1-c1ccc(C(=O)Nc2c(F)cccc2F)n1C [Example 62, N-(2,6-Difluorophenyl)-1-methyl-5-(2-methyl-5-(4-methyl-5-oxo-4,5-dihydro-1,3,4-oxadiazol-2-yl)pyridin-3-yl)-1H-pyrrole-2-carboxamide], CCc1ncc(-c2nn(C)c(=O)o2)cc1-c1ccc(C(=O)Nc2c(F)cccc2F)n1C [Example 63, N-(2,6-Difluorophenyl)-5-(2-ethyl-5-(4-methyl-5-oxo-4,5-dihydro-1,3,4-oxadiazol-2-yl)pyridin-3-yl)-1-methyl-1H-pyrrole-2-carboxamide] is lower in pIC50: 6.00 to 7.00 for the first, less than 6.00 for the second. The first is the more potent here.

Compared with CCc1cc(-c2ccc(NC(=O)c3c(F)cccc3F)cc2)nc(-c2nn(C)c(=O)o2)c1 [Example 64, N-(4-(4-Ethyl-6-(4-methyl-5-oxo-4,5-dihydro-1,3,4-oxadiazol-2-yl)pyridin-2-yl)phenyl)-2,6-difluorobenzamide], Cn1nc(-c2cnc(-c3ccc(NC(=O)c4c(F)cccc4F)cc3)c(C3CC3)c2)oc1=O [Example 66, N-(4-(3-Cyclopropyl-5-(4-methyl-5-oxo-4,5-dihydro-1,3,4-oxadiazol-2-yl)pyridin-2-yl)phenyl)-2,6-difluorobenzamide] is higher in pIC50: less than 6.00 for the first, 6.00 to 7.00 for the second. The second is the more potent here.

Cn1nc(-c2cc(C3CC3)cnc2-c2ccc(NC(=O)c3c(F)cccc3F)cc2)oc1=O [Example 67, N-(4-(5-Cyclopropyl-3-(4-methyl-5-oxo-4,5-dihydro-1,3,4-oxadiazol-2-yl)pyridin-2-yl)phenyl)-2,6-difluorobenzamide] showed a pIC50 of less than 6.00.
